Legend:
Type in all cases: in vivo, Mouse
[1] = system: Mice with high-fat-diet-induced obesity; experiment: Experimental Example 2: co-administration of long-acting glucagon derivative and oral diabetes drug in mice with high-fat-diet-induced obesity; details: 28 days; long-acting glucagon derivative 1.2 nmol/kg once every 2 days; Sitagliptin 49.2 mg/kg, Empagliflozin 12.3 mg/kg once a day; SAXENDA 50 nmol/kg twice a day
Experimental: (§1) Mice with high-fat-diet-induced obesity, which have been widely used as obesity animal models, were used for this experiment. The body weights of the mice were in the range of about 50 g to 55 g. During this experiment, mice were housed 7 mice per each group and were given ad libitum access to water. Lights were turned off between 6 P.M. and 6 A. M.
Test groups fed with high-fat diet include: Group 1: administered with an excipient not including long-acting glucagon (5 mL/kg, injection once every 2 days)-control (Vehicle), Group 2: administered with a GLP-1 analog obesity drug (SAXENDA®, 50 nmol/kg, injection twice a day), Group 3: administered with the long-acting glucagon derivative (1.2 nmol/kg, injection once every 2 days), Group 4: administered with a DPP-4 inhibitor (Sitagliptin, 49.2 mg/kg, injection once a day), Group 5: administered with an SGLT-2 inhibitor (Empagliflozin, 12.3 mg/kg, injection once a day), Group 6: co-administered with Sitagliptin (49.2 mg/kg, injection once a day) and the long-acting glucagon derivative (1.2 nmol/kg, injection once every 2 days), and Group 7: Empagliflozin (12.3 mg/kg, injection once a day) and the long-acting glucagon derivative (1.2 nmol/kg, injection once every 2 days). The long-acting glucagon derivative used in this experiment was the long-acting derivative according to Example 5.
(§2) The experiment was terminated on the 28th day, and changes in body weight of the mice in each group were measured at 2-day intervals during the progress of the experiment, and changes in blood glucose level were measured before administration and at the 1st, 4th, 7th, 10th, 13th, 16th, 19th, 22nd, 25th, and 28th days after administration. Upon termination of the experiment, the weight of fat and HOMA-IR were measured.
(§3) Statistical analysis was performed by comparing the excipient group (control) with the test groups by 1-way ANOVA.

[2] = system: Mice with high-fat-diet-induced obesity; experiment: Experimental Example 1: body weight, fat, HOMA-IR and blood glucose in mice with high-fat-diet-induced obesity; details: 28 days; long-acting glucagon derivative 1.2 nmol/kg once every 2 days; SAXENDA 50 nmol/kg twice a day; Sitagliptin 49.2 mg/kg once a day
Experimental: as §1
Test groups fed with high-fat diet include: Group 1: administered with an excipient not including long-acting glucagon (5 mL/kg, injection once every 2 days)-control (Vehicle), Group 2: administered with a GLP-1 analog obesity drug (SAXENDA®, 50 nmol/kg, injection twice a day), Group 3: administered with the long-acting glucagon derivative (1.2 nmol/kg, injection once every 2 days), and Group 4: administered with a DPP-4 inhibitor (Sitagliptin, 49.2 mg/kg, injection once a day).
as §2, §3

[3] = system: Mice with high-fat-diet-induced obesity; experiment: Experimental Example 3: long-acting glucagon derivative and GLP-1 analogs, alone and co-administered, in mice with high-fat-diet-induced obesity; details: 28 days; glucagon long-acting derivative 2.0 nmol/kg once every 2 days; SAXENDA 50 nmol/kg twice a day; OZEMPIC 20.5 nmol/kg, TRULICITY 2.7 nmol/kg once every 2 days
Experimental: as §1, with “Light was” for “Lights were”, “A.M. […]” for “A. M.”
The experiment was terminated on the 28th day, and changes in body weight of the mice in each group were measured at 2-day intervals during the progress of the experiment. Upon termination of the experiment, blood lipid levels, weights of fat, and blood glucose levels were measured. […]

In the case of `OC[C@H]1O[C@@H](c2ccc(Cl)c(Cc3ccc(O[C@H]4CCOC4)cc3)c2)[C@H](O)[C@@H](O)[C@@H]1O` [Empagliflozin], the “weight loss (change in body weight)” value [1] is reported as −10.4%.

With `N[C@@H](CC(=O)N1CCn2c(nnc2C(F)(F)F)C1)Cc1cc(F)c(F)cc1F` [Sitagliptin] the “weight loss (change in body weight)” value [1] was −0.1% and the “change in body weight compared to body weight before administration” value [2] was −0.1%.

“SAXENDA®: GLP-1 analog obesity drug (HAEGTFTSDVSSYLEGQAAKEFIAWLVRGRG; chains of the INN, looked up)” was tested, and the “weight loss (change in body weight)” value [1] was −16.3%, the “weight loss compared to the body weight before administration” value [3] was −18.10% and the “change in body weight compared to body weight before administration” value [2] was −16.3%.

TRULICITY®: long-acting GLP-1 analog was tested, and the “weight loss compared to the body weight before administration” value [3] was −3.81%.
